In patent EP4389751A1, “HETEROCYCLIC COMPOUNDS AND USES THEREOF” (Kumquat Biosciences Inc., priority 2021, dated 2024):

Assays:
[1] = target: T1, K-Ras G12S (Homo sapiens, UniProt P01116, G12S); experiment: HTRF assay of the K-Ras / SOS1 interaction; type: biochemical; settings: IC50 (against K-Ras G12D) to IC50 (against K-Ras G12S)
T1 construct: made in house; host or cells: E. coli (e.g., BL21 (DE3))
Method in brief: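 Compounds (duplicates, 10 µM to 0.01 µM) were incubated ≥~10 min with Eu-labelled GST-K-Ras G12S and XL665-labelled His-hSOS1 in HEPES pH 7.4 buffer containing NaCl, DTT, BSA and Igepal. Disruption measured as HTRF emission ratio 665/620 nm, fitted to IC50.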

[2] = target: T2, KRAS protein (His-tagged GDP-loaded G12S 1-169) (Homo sapiens, UniProt P01116, G12S); experiment: Covalent modification of KRAS protein, intact-protein LC-MS; type: binding; settings: 24hrs at room temperature, KRAS protein ~2 µM
T2 construct: His-tagged GDP-loaded G12S 1-169
Procedure: Test compounds are prepared as 10 mM stock solutions in DMSO (Fisher cat#BP231-100). KRAS protein (His-tagged GDP-loaded wildtype 1-169, His-tagged GDP-loaded G12S 1-169 or His-tagged GDP-loaded G12D 1-169) is diluted to ~2 µM in appropriate buffer (e.g., a Hepes buffer at physiological conditions). For testing KRAS modification, compounds are diluted to 50X final test concentration in DMSO in 96-well storage plates. 2 µl of the diluted 50X compounds are added to appropriate wells in the PCR plate (Fisher cat#AB-0800). […] of the stock protein solution is added to each well of the 96-well PCR plate. Reactions are mixed carefully. The plate is sealed well with aluminum plate seal, and stored in drawer at room temperature for 24hrs. 5 µl of 2% formic acid (Fisher cat#A1 17-50) in MilliQ H2O is then added to each well followed by mixing with a pipette. The plate is then resealed with aluminum seal and stored until mass spectrometry analysis.
The extent of covalent modification of KRAS proteins was determined by liquid chromatography electrospray mass spectrometry analysis of the intact proteins on a Thermo Q-Exactive Plus mass spectrometer. 20 µl of sample was injected onto a bioZen 3.6 µm Intact C4 column (Phenomenex cat#00B-4767-AN) placed in a column oven set to 40°C and separated using a suitable LC gradient from -20% to ~60% solvent B. Solvent A was 0.1% formic acid and solvent B was 0.1% formic acid in acetonitrile. HESI source settings were set to 40, 5 and 1 for the sheath, auxiliary and sweep gas flow, respectively. The spray voltage was 4 kV, and the capillary temperature was 320°C. S-lens RF level was 50 and auxiliary gas heater temperature was set to 200°C. The mass spectrometry was acquired using a scan range from 650 to 1750 m/z using positive polarity at a mass resolution of 70,000, AGC target of 1e6 ions and maximum injection time of 250ms. The recorded protein mass spectrum was deconvoluted from the raw data file using Protein Deconvolution v4.0 (Thermo). The protein mass and adduct masses were exported with their peak intensities. The peak intensities for the unmodified and modified protein were used to calculate the percent covalent modification of the KRAS protein based on the following equation: %KRAS protein modification = ((KRAS-compound) / (KRAS) + (KRAS-Compound)) *100.

[3] = tested on: GP2D cells; experiment: Cell proliferation assay (CellTiter-Glo), K-Ras G12D cells; type: cell-based; settings: GP2D cells (K-Ras G12D); read-out: Inhibition of GP2D Cells (IC50)
Method in brief: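 CellTiter-Glo luminescence, taken roughly 5 days after dosing, measured growth of G12D-mutant GP2D cells in DMEM/2 mM glutamine/10% FBS. Compound dilution series (e.g., 9 points, 3-fold) added the day after plating. Four-parameter fitting gave IC50.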

Row | SMILES | Ratio of IC50 KRAS G12D vs. IC50 KRAS G12S [1] | % G12S Modification at 24 hr. [2] | IC50 [3]
1 | CN1CCC[C@H]1COc1nc(N2CCOC3(CN(C(=O)n4cncn4)C3)C2)c2cc(Cl)c(-c3ccc(F)c4sc(N)c(C#N)c34)c(F)c2n1 [Compound A182, 4-(4-(2-(1H-1,2,4-triazole-1-carbonyl)-5-oxa-2,8-diazaspiro[3.5]nonan-8-yl)-6-chloro-8-fluoro-2-(((S)-1-methylpyrrolidin-2-yl)methoxy)quinazolin-7-yl)-2-amino-7-fluorobenzo[b]thiophene-3-carbonitrile] | A (A: indicates that the ratio of IC50 against KrasG12D vs. IC50 against KrasG12S is 1-fold or greater) | ++ (++ indicates between about 1%- 20% labelling) | –
2 | Nc1nc2c(-c3c(Cl)cc4c(N5CCC6(CCN(C(=O)n7cncn7)CC6)C5)nc(OC[C@@]56CCCN5C[C@H](F)C6)nc4c3F)ccc(F)c2s1 [Compound A198, (2-(7-(2-amino-7-fluorobenzo[d]thiazol-4-yl)-6-chloro-8-fluoro-2-(((2R,7aS)-2-fluorotetrahydro-1H-pyrrolizin-7a(5H)-yl)methoxy)quinazolin-4-yl)-2,8-diazaspiro[4.5]decan-8-yl)(1H-1,2,4-triazol-1-yl)methanone] | A (A: indicates that the ratio of IC50 against KrasG12D vs. IC50 against KrasG12S is 1-fold or greater) | +++ (+++ indicates greater than 20% labelling) | –
3 | Nc1nc2c(-c3c(Cl)cc4c(N5CCC6(CN(C(=O)n7cncn7)CCO6)C5)nc(OC[C@@]56CCCN5C[C@H](F)C6)nc4c3F)ccc(F)c2s1 (stereo partly drawn) [Compound A202, (2-(7-(2-amino-7-fluorobenzo[d]thiazol-4-yl)-6-chloro-8-fluoro-2-(((2R,7aS)-2-fluorotetrahydro-1H-pyrrolizin-7a(5H)-yl)methoxy)quinazolm-4-yl)-6-oxa-2,9-diazaspiro[4.5]decan-9-yl)(1H-1,2,4-triazol-1-yl)methanone] | – | +++ (+++ indicates greater than 20% labelling) | 1 to 10 µM
4 | CC1(C)CN(c2nc(OC[C@@]34CCCN3C[C@H](F)C4)nc3c(F)c(-c4ccc(F)c5sc(N)nc45)c(Cl)cc23)CC2(CN(C(=O)n3cncn3)C2)O1 [Compound A212, (8-(7-(2-amino-7-fluorobenzo[d]thiazol-4-yl)-6-chloro-8-fluoro-2-(((2R,7aS)-2-fluorotetrahydro-1H-pyrrolizin-7a(5H)-yl)methoxy)quinazolin-4-yl)-6,6-dimethyl-5-oxa-2,8-diazaspiro[3.5]nonan-2-yl)(1H-1,2,4-triazol-1-yl)methanone] | – | +++ (+++ indicates greater than 20% labelling) | 1 to 10 µM
5 | N#Cc1c(N)sc2c(F)ccc(-c3c(Cl)cc4c(O[C@@H]5CCN(C(=O)n6cncn6)C5)nc(OCC56CCCN5C[C@H](F)C6)nc4c3F)c12 (stereo partly drawn) [Compound A213, 4-(4-(((R)-1-(1H-1,2,4-triazole-1-carbonyl)pyrrolidin-3-yl)oxy)-6-chloro-8-fluoro-2-(((2R)-2-fluorotetrahydro-1H-pyrrolizin-7a(5H)-yl)methoxy)quinazolin-7-yl)-2-amino-7-fluorobenzo[b]thiophene-3-carbonitrile] | A (A: indicates that the ratio of IC50 against KrasG12D vs. IC50 against KrasG12S is 1-fold or greater) | ++ (++ indicates between about 1%- 20% labelling) | –
6 | Nc1nc2c(-c3c(Cl)cc4c(N5CCC6(CC5)CN(C(=O)n5cncn5)CCO6)nc(OC[C@@]56CCCN5C[C@H](F)C6)nc4c3F)ccc(F)c2s1 [Compound A225, (9-(7-(2-amino-7-fluorobenzo[d]thiazol-4-yl)-6-chloro-8-fluoro-2-(((2R,7aS)-2-fluorotetrahydro-1H-pyrrolizin-7a(5H)-yl)methoxy)quinazolin-4-yl)-1-oxa-4,9-diazaspiro [5.5]undecan-4-yl)(1H-1,2,4-triazol-1-yl)methanone] | A (A: indicates that the ratio of IC50 against KrasG12D vs. IC50 against KrasG12S is 1-fold or greater) | ++ (++ indicates between about 1%- 20% labelling) | –
7 | N#Cc1cnn(C(=O)N2CCCN(c3nc(OC[C@@]45CCCN4C[C@H](F)C5)nc4c(F)c(-c5ccc(F)c6sc(N)nc56)c(Cl)cc34)CC2)c1 [Compound A231, 1-(4-(7-(2-amino-7-fluorobenzo[d]thiazol-4-yl)-6-chloro-8-fluoro-2-(((2R,7aS)-2-fluorotetrahydro-1H-pyrrolizin-7a(5H)-yl)methoxy)quinazolin-4-yl)-1,4-diazepane-1-carbonyl)-1H-pyrazole-4-carbonitrile] | A (A: indicates that the ratio of IC50 against KrasG12D vs. IC50 against KrasG12S is 1-fold or greater) | ++ (++ indicates between about 1%- 20% labelling) | –
8 | N#Cc1nccn1C(=O)N1CC2CN(c3nc(OC[C@@]45CCCN4C[C@H](F)C5)nc4c(F)c(-c5ccc(F)c6sc(N)nc56)c(Cl)cc34)CC2C1 (stereo partly drawn) [Compound A236, 1-(5-(7-(2-amino-7-fluorobenzo[d]thiazol-4-yl)-6-chloro-8-fluoro-2-(((2R,7aS)-2-fluorotetrahydro-1H-pyrrolizin-7a(5H)-yl)methoxy)quinazolin-4-yl)octahydropyrrolo[3,4-c]pyrrole-2-carbonyl)-1H-imidazole-2-carbonitrile] | A (A: indicates that the ratio of IC50 against KrasG12D vs. IC50 against KrasG12S is 1-fold or greater) | ++ (++ indicates between about 1%- 20% labelling) | –
9 | N#Cc1c(N)sc2c(F)ccc(-c3c(Cl)cc4c(N5CC(F)(F)C6CN(C(=O)n7cncn7)CCC65)nc(OC[C@@]56CCCN5C[C@H](F)C6)nc4c3F)c12 (stereo partly drawn) [Compound A263, 2-amino-4-(6-chloro-4-(3,3-difluoro-5-(1H-1,2,4-triazole-1-carbonyl)octahydro-1H-pyrrolo[3,2-c]pyridin-1-yl)-8-fluoro-2-(((2R,7aS)-2-fluorotetrahydro-1H-pyrrolizin-7a(5H)-yl)methoxy)quinazolm-7-yl)-7-fluorobenzo[b]thiophene-3-carbonitrile] | A (A: indicates that the ratio of IC50 against KrasG12D vs. IC50 against KrasG12S is 1-fold or greater) | ++ (++ indicates between about 1%- 20% labelling) | –
10 | N#Cc1c(N)sc2c(F)ccc(-c3c(Cl)cc4c(N5CC6CCCN(C(=O)n7cncn7)C6C5)nc(OC[C@@]56CCCN5C[C@H](F)C6)nc4c3F)c12 (stereo partly drawn) [Compound A284, 4-(4-(1-(1H-1,2,4-triazole-1-carbonyl)octahydro-6H-pyrrolo[3,4-b]pyridin-6-yl)-6-chloro-8-fluoro-2-(((2R,7aS)-2-fluorotetrahydro-1H-pyrrolizin-7a(5H)-yl)methoxy)quinazolin-7-yl)-2-amino-7-fluorobenzo[b]thiophene-3-carbonitrile] | A (A: indicates that the ratio of IC50 against KrasG12D vs. IC50 against KrasG12S is 1-fold or greater) | +++ (+++ indicates greater than 20% labelling) | –
11 | Cc1ncn(C(=O)N2CCCC(Oc3nc(OC[C@@]45CCCN4C[C@H](F)C5)nc4c(F)c(-c5ccc(F)c6sc(N)c(C#N)c56)c(Cl)cc34)C2)n1 (stereo partly drawn) [Compound A302, 2-amino-4-(6-chloro-8-fluoro-2-(((2R,7aS)-2-fluorotetrahydro-1H-pyrrolizin-7a(5H)-yl)methoxy)-4-((1-(3-methyl-1H-1,2,4-triazole-1-carbonyl)piperidin-3-yl)oxy)quinazolin-7-yl)-7-fluorobenzo[b]thiophene-3-carbonitrile] | A (A: indicates that the ratio of IC50 against KrasG12D vs. IC50 against KrasG12S is 1-fold or greater) | ++ (++ indicates between about 1%- 20% labelling) | –
